A short description of series [1]: Toxicity assay. To be noted: African green monkey, Vero-B4 cells (non-infected).
Series [2] deals with wt CHIKV^Brazil. Briefly: IC50 evaluation: inhibition of CHIKV-induced cell death. As to conditions: for dose-dependent inhibition of CPE / efficacy in Vero-B4: Vero-B4 cells, CHIKV^Brazil, T-1105 range 5–100 µM. It is filed as cell-based, Chikungunya virus.
Series [3] in a line: Toxicity assay. As to conditions: human, U138 cells (non-infected).
Another series concerns U138 cells. Briefly: Toxicity assay. As to conditions: for cell damage in toxicity testing: non-infected U138, HCQ 10 µM, T-1105 10 and 50 µM, 4 days.
Series [4] concerns wt CHIKV^Brazil. The series can be described thus: IC50 evaluation: inhibition of CHIKV-induced cell death. The series is classed as cell-based, Chikungunya virus. To be noted: for IC50: Chikungunya virus, 96 h, read-out: IC50 (µM) U138; for dose-dependent inhibition of CPE / antiviral effect in U138: U138 cells, wt CHIKV^Brazil.
For a further series, the system named is CHIKV^Brazil. The series is classed as cell-based, Chikungunya virus. As to conditions: MOI 0.64, RBV 410 µM (p < 0.001), HCQ 10 µM (p < 0.0001).
The subject of another series is wt CHIKV. To be noted: MOI 0.005, cited from earlier work.
In the next series the test system is Vero-E6 cells. To be noted: same study as IC50 against wt CHIKV; cited from earlier work.
In a further series the test system is Vero cells. To be noted: cited from earlier work.
In another series the test system is Vero-B4 cells. The series can be described thus: Toxicity assay. As to conditions: read-out: CC50 (µM) Vero-B4; non-infected Vero-B4 cells; MTS after 4 days.
Series [5] relates to CHIKV Indian Ocean strain 899 (lab). To be noted: MOI 0.01, Vero cells; cited from earlier work.

This is an account of results in PMC8960095 (Virus Genes, 2022).

The CC50 is the concentration giving 50% cytotoxicity. What is called IC50 is the midpoint of a concentration-inhibition curve. A word on the viability: it is a read-out of living cells in per cent, often relative to untreated cells.

Like-named read-outs stand apart in the source and are kept apart here.

With `CCN(CCO)CCCC(C)Nc1ccnc2cc(Cl)ccc12` (stereo not shown) [Hydroxychloroquine, hydroxychloroquine], the CC50 at 4 days in “Toxicity assay [1]” is 49.6 µM; in the series “Toxicity assay [3]” it was 35.5 µM. The IC50 came out at 18.3 µM in the series on wt CHIKV^Brazil [2] (Chikungunya virus, 96 h, read-out: IC50 (µM) Vero-B4) and 4.14 µM with wt CHIKV^Brazil [4]. The “dose-dependent inhibition of CPE / efficacy in Vero-B4” value with wt CHIKV^Brazil [2] was “dose-dependent inhibition of CPE”. In addition, in the series on U138 cells, the “cell damage in toxicity testing” value is given as “Neither T-1105 nor HCQ led to significant cell damage”. Besides, the “dose-dependent inhibition of CPE / antiviral effect in U138” value with wt CHIKV^Brazil [4] was “dose-dependent inhibition of CPE”. Also, the “protection of U138 cells from CPE by wt CHIKV^Brazil compared with CHIKV^Ross” value in the series on CHIKV^Brazil is reported as “significantly better”.
Take `NC(=O)c1ncn([C@@H]2O[C@H](CO)[C@@H](O)[C@H]2O)n1` [Ribavirin, ribavirin]: the values for the IC50 in the series on wt CHIKV (comparable experiments in Vero-E6 cells), with wt CHIKV (wt CHIKV) and in the series on wt CHIKV^Brazil [4] were 424 to 766 µM, 424 µM and 166 µM, respectively. Further, the results for the CC50 at 4 days in the series “Toxicity assay [1]” and in “Toxicity assay [3]” were > 1000 µM and > 500 µM, respectively. For the same compound, in the series with wt CHIKV^Brazil [2] (1000 µM RBV (highest concentration), infected Vero-B4 cells, at MOI 0.325), the surviving cells came to 37.55 ± 6.15%. In the series on wt CHIKV^Brazil [2], the “dose-dependent inhibition of CPE / efficacy in Vero-B4” value is “dose-dependent inhibition of CPE”. The compound further displayed a viability at 4 days, 410 µM in the series “Toxicity assay [3]” of 70.4 ± 13.1%. For the same compound, the “dose-dependent inhibition of CPE / antiviral effect in U138” value with wt CHIKV^Brazil [4] is on record as “dose-dependent inhibition of CPE”. Besides, the CC50 with Vero-E6 cells was > 500 µM. Moreover, the “protection of U138 cells from CPE by wt CHIKV^Brazil compared with CHIKV^Ross” value in the series on CHIKV^Brazil is listed as “significantly better”.
With `NC(=O)c1ncc[nH]c1=O` [T-1105], the CC50 is 571 µM with Vero cells; > 100 µM with Vero-B4 cells; > 100 µM in the series on U138 cells (read-out: CC50 (µM) U138, non-infected U138 cells, MTS after 4 days). The “dose-dependent inhibition of CPE / efficacy in Vero-B4” value in the series on wt CHIKV^Brazil [2] was “no dose-dependent efficacy”. Also, in series [5], the IC50 is 7 to 47 µM. For the same compound, the “cell damage in toxicity testing” value with U138 cells is recorded as “Neither T-1105 nor HCQ led to significant cell damage”. In addition, in the series on wt CHIKV^Brazil [4], the “dose-dependent inhibition of CPE / antiviral effect in U138” value is “dose-dependent effect”.
For `CCN(CC)CCCC(C)Nc1ccnc2cc(Cl)ccc12` (stereo not shown) [CQ, chloroquine], the IC50 in the series with wt CHIKV (wt CHIKV) is 5 to 10.6 µM. Further, in the series on Vero-E6 cells, the CC50 was > 36 µM.
